# Laboratory results reported in patent US20100267561A1, “HERBICIDAL PYRIDAZINONE DERIVATIVES” (priority 2007, published 2010).
# Experiments:
# Assay type in all cases: in vivo
# [1] = system: large crabgrass (Digitaria sanguinalis); assay: Test B pre-/postemergence plant response; conditions: for Crabgrass, Large plant response rating: 8 g ai/ha
# Procedure, shortened: (§1)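 Visual scoring from 0 (no effect) to 100 (complete control) against untreated controls was done 13 to 15 days after greenhouse treatment. Chemicals were formulated in a surfactant-containing non-phytotoxic solvent and applied to soil preemergence or to 1- to 4-leaf (2-18 cm) plants postemergence.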
# [2] = system: woolly cupgrass (Eriochloa villosa); assay: Test B pre-/postemergence plant response; conditions: for Cupgrass, Woolly plant response rating: 8 g ai/ha
# Procedure, shortened: as §1
# [3] = system: Italian ryegrass (Lolium multiflorum); assay: Test C pre-/postemergence plant response
# Procedure, shortened: (§2)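 Formulated in a surfactant-containing non-phytotoxic solvent, compounds were tested under controlled growth conditions as preemergence and postemergence treatments. Ratings from 0 (no effect) to 100 (complete control) were assigned visually relative to controls 15 to 25 days later.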
# [4] = system: annual bluegrass (Poa annua); assay: Test C pre-/postemergence plant response
# Procedure, shortened: as §2
# [5] = system: blackgrass (Alopecurus myosuroides); assay: Test C pre-/postemergence plant response
# Procedure, shortened: as §2
# [6] = system: canarygrass (Phalaris minor); assay: Test C pre-/postemergence plant response
# Procedure, shortened: as §2
# [7] = system: downy bromegrass (Bromus tectorum); assay: Test C pre-/postemergence plant response
# Procedure, shortened: as §2
# [8] = system: green foxtail (Setaria viridis); assay: Test C pre-/postemergence plant response
# Procedure, shortened: as §2
# [9] = system: pigweed (Amaranthus retroflexus); assay: Test C pre-/postemergence plant response
# Procedure, shortened: as §2
# [10] = system: spring barley (Hordeum vulgare); assay: Test C pre-/postemergence plant response
# Procedure, shortened: as §2
# [11] = system: wild mustard (Sinapis arvensis); assay: Test C pre-/postemergence plant response
# Procedure, shortened: as §2
# [12] = system: wild oat (Avena fatua); assay: Test C pre-/postemergence plant response
# Procedure, shortened: as §2
# [13] = system: winter wheat (Triticum aestivum); assay: Test C pre-/postemergence plant response
# Procedure, shortened: as §2
# [14] = Postemergence, 16 g ai/ha, scale 0 to 100
# [15] = Postemergence, 31 g ai/ha, scale 0 to 100, 0 no effect, 100 complete control
# [16] = Postemergence, 62 g ai/ha, scale 0 to 100
# [17] = Preemergence, 16 g ai/ha, scale 0 to 100 (0 no effect, 100 complete control)
# [18] = Preemergence, 31 g ai/ha, 0 to 100 scale, 0 no effect, 100 complete control
# [19] = Preemergence, 62 g ai/ha, scale 0 to 100
# [20] = Postemergence, 8 g ai/ha, scale 0 to 100, 0 no effect, 100 complete control
# [21] = Postemergence, 16 g ai/ha, scale 0 to 100, 0 no effect, 100 complete control
# [22] = Postemergence, 62 g ai/ha, scale 0 to 100, 0 no effect, 100 complete control
# [23] = Preemergence, 8 g ai/ha, scale 0 to 100 (0 no effect, 100 complete control)
# [24] = Preemergence, 31 g ai/ha, scale 0 to 100 (0 no effect, 100 complete control)
# [25] = Preemergence, 62 g ai/ha, scale 0 to 100, 0 no effect, 100 complete control
smiles,measurement,setting,value
CCc1cc(-c2ccc(F)cc2)nn1-c1c(O)cnn(C)c1=O [Compound 25],"Crabgrass, Large plant response rating","[1]; postemergence, 0-100 scale",5
same,"Plant response rating, Crabgrass, Large",[1]; [14],60
same,"Plant response rating, Crabgrass, Large",[1]; [15],75
same,"Plant response rating, Crabgrass, Large",[1]; [16],80
same,"Plant response rating, Crabgrass, Large",[1]; [17],20
same,"Plant response rating, Crabgrass, Large",[1]; [18],60
same,"Plant response rating, Crabgrass, Large",[1]; [19],80
same,"Crabgrass, Large plant response rating","[1]; Preemergence, scale 0 to 100",0
same,"Cupgrass, Woolly plant response rating","[2]; postemergence, 0-100 scale",60
same,"Plant response rating, Cupgrass, Woolly",[2]; [14],80
same,"Plant response rating, Cupgrass, Woolly",[2]; [15],85
same,"Plant response rating, Cupgrass, Woolly",[2]; [16],100
same,"Plant response rating, Cupgrass, Woolly",[2]; [17],40
same,"Plant response rating, Cupgrass, Woolly",[2]; [18],80
same,"Plant response rating, Cupgrass, Woolly",[2]; [19],80
same,"Cupgrass, Woolly plant response rating","[2]; Preemergence, scale 0 to 100",0
same,"Plant response rating, Ryegrass, Italian",[3]; [20],0
same,"Plant response rating, Ryegrass, Italian",[3]; [21],60
same,"Plant response rating, Ryegrass, Italian",[3]; [15],80
same,"Plant response rating, Ryegrass, Italian",[3]; [22],95
same,"Plant response rating, Ryegrass, Italian",[3]; [23],25
same,"Plant response rating, Ryegrass, Italian",[3]; [17],30
same,"Plant response rating, Ryegrass, Italian",[3]; [24],60
same,"Plant response rating, Ryegrass, Italian",[3]; [25],75
same,"Plant response rating, Bluegrass",[4]; [20],0
same,"Plant response rating, Bluegrass",[4]; [21],0
same,"Plant response rating, Bluegrass",[4]; [15],15
same,"Plant response rating, Bluegrass",[4]; [22],15
same,"Plant response rating, Bluegrass",[4]; [23],0
same,"Plant response rating, Bluegrass",[4]; [17],35
same,"Plant response rating, Bluegrass",[4]; [24],40
same,"Plant response rating, Bluegrass",[4]; [25],40
same,"Plant response rating, Blackgrass",[5]; [20],5
same,"Plant response rating, Blackgrass",[5]; [21],35
same,"Plant response rating, Blackgrass",[5]; [15],90
same,"Plant response rating, Blackgrass",[5]; [22],98
same,"Plant response rating, Blackgrass",[5]; [23],0
same,"Plant response rating, Blackgrass",[5]; [17],50
same,"Plant response rating, Blackgrass",[5]; [24],75
same,"Plant response rating, Blackgrass",[5]; [25],75
same,"Plant response rating, Canarygrass",[6]; [20],0
same,"Plant response rating, Canarygrass",[6]; [21],0
same,"Plant response rating, Canarygrass",[6]; [15],0
same,"Plant response rating, Canarygrass",[6]; [22],40
same,"Plant response rating, Canarygrass",[6]; [23],0
same,"Plant response rating, Canarygrass",[6]; [17],0
same,"Plant response rating, Canarygrass",[6]; [24],10
same,"Plant response rating, Canarygrass",[6]; [25],35
same,"Plant response rating, Bromegrass, Downy",[7]; [20],0
same,"Plant response rating, Bromegrass, Downy",[7]; [21],0
same,"Plant response rating, Bromegrass, Downy",[7]; [15],0
same,"Plant response rating, Bromegrass, Downy",[7]; [22],20
same,"Plant response rating, Bromegrass, Downy",[7]; [23],20
same,"Plant response rating, Bromegrass, Downy",[7]; [17],20
same,"Plant response rating, Bromegrass, Downy",[7]; [24],20
same,"Plant response rating, Bromegrass, Downy",[7]; [25],35
same,"Plant response rating, Foxtail, Green",[8]; [20],70
same,"Plant response rating, Foxtail, Green",[8]; [21],80
same,"Plant response rating, Foxtail, Green",[8]; [15],95
same,"Plant response rating, Foxtail, Green",[8]; [22],98
same,"Plant response rating, Foxtail, Green",[8]; [23],15
same,"Plant response rating, Foxtail, Green",[8]; [17],25
same,"Plant response rating, Foxtail, Green",[8]; [24],100
same,"Plant response rating, Foxtail, Green",[8]; [25],100
same,"Plant response rating, Pigweed",[9]; [20],0
same,"Plant response rating, Pigweed",[9]; [21],0
same,"Plant response rating, Pigweed",[9]; [15],0
same,"Plant response rating, Pigweed",[9]; [22],20
same,"Plant response rating, Pigweed",[9]; [23],0
same,"Plant response rating, Pigweed",[9]; [17],0
same,"Plant response rating, Pigweed",[9]; [24],0
same,"Plant response rating, Pigweed",[9]; [25],0
same,"Plant response rating, Barley, Spring",[10]; [20],0
same,"Plant response rating, Barley, Spring",[10]; [21],0
same,"Plant response rating, Barley, Spring",[10]; [15],0
same,"Plant response rating, Barley, Spring",[10]; [23],0
same,"Plant response rating, Barley, Spring",[10]; [17],0
same,"Plant response rating, Barley, Spring",[10]; [24],0
same,"Plant response rating, Barley, Spring",[10]; [25],0
same,"Plant response rating, Mustard, Wild",[11]; [20],0
same,"Plant response rating, Mustard, Wild",[11]; [21],0
same,"Plant response rating, Mustard, Wild",[11]; [15],0
same,"Plant response rating, Mustard, Wild",[11]; [22],0
same,"Plant response rating, Mustard, Wild",[11]; [23],0
same,"Plant response rating, Mustard, Wild",[11]; [17],0
same,"Plant response rating, Mustard, Wild",[11]; [24],0
same,"Plant response rating, Oat, Wild",[12]; [20],0
same,"Plant response rating, Oat, Wild",[12]; [21],15
same,"Plant response rating, Oat, Wild",[12]; [15],90
same,"Plant response rating, Oat, Wild",[12]; [22],95
same,"Plant response rating, Oat, Wild",[12]; [23],15
same,"Plant response rating, Oat, Wild",[12]; [17],15
same,"Plant response rating, Oat, Wild",[12]; [24],40
same,"Plant response rating, Oat, Wild",[12]; [25],40
same,"Plant response rating, Wheat, Winter",[13]; [20],0
same,"Plant response rating, Wheat, Winter",[13]; [21],0
same,"Plant response rating, Wheat, Winter",[13]; [15],0
same,"Plant response rating, Wheat, Winter",[13]; [23],0
same,"Plant response rating, Wheat, Winter",[13]; [17],0
same,"Plant response rating, Wheat, Winter",[13]; [24],0
same,"Plant response rating, Wheat, Winter",[13]; [25],0
